The conditions of data set [1]: rat, 120 mg/kg dose; cited from earlier work.
Data set [2] can be described thus: Chemical characteristics of composition A′, concentrated and diluted forms. Type of data set: physicochemical. Here is the method:
Several tests were conducted to determine the chemical characteristics of composition A′, both in concentrated and diluted forms. […] All liquid nanodomain droplets range in size from 5 to 20 nm. The pH of both the concentrate and diluted formulations is between 6.0 and 7.5.

One may read the logP as the decadic logarithm of the partition coefficient of the neutral form, usually between octanol and water. The low end stands for lower lipophilicity, the high end for higher lipophilicity. Consider `C=C(C)[C@@H]1CCC(C)=C[C@H]1c1c(O)cc(CCCCC)cc1O` [CBD, 2-(1R,6R)-3-methyl-6-prop-1-en-2-ylcyclohex-2-en-1-yl-5-pentylbenzene-1,3-diol], for which the T1/2 in data set [1] was 4 to 5 h. In data set [2], this compound had a lipophilicity (logP) of 6. For the same compound, the “Association of CBD with formulation phases during storage” value in data set [2] (both concentrated and diluted forms of composition A′) is “remained associated with the surfactant and lipid phases”.

(Values after patent publication US20250170153A1, “METHODS FOR THE TREATMENT OF ANXIETY DISORDER” (ANANDA SCIENTIFIC, INC., priority 2022, published 2025).)
